Several values for one entry are separate records, joined by “and”; a condition that tells them apart may be missing. Equal entries are not always repeated. Where two headings read alike, the source gives them in different places.
How the values were obtained:
[1] = Single-dose oral rat toxicology study of CLA acetal; format: in vivo, Sprague Dawley rats; conditions: rats, oral gavage, 250, 1000, 2000 mg/kg, up to 24 hours after dosing
Procedure: Sprague Dawley rats were administered single doses of CLA acetal by oral gavage at 7-8 weeks of age. Each group received a single oral dose level of CLA acetal, ranging in amount from 0 to 2000 mg/kg. The vehicle consisted of Dulbecco's phosphate-buffered saline.

[2] = Qualitative oral bioavailability of CLA acetal in the rat (plasma); conditions: for Estimated Plasma Concentration of CLA acetal / Estimated Plasma Concentration of CLA aldehyde: rat plasma
Procedure: This experiment was designed to measure in a qualitative manner the oral bioavailability of CLA acetal in rats. Four Lewis strain normal male rats, 9 weeks of age were administered a single dose of 50 mg/kg of the acetate salt of the CLA acetal compound, using a single oral gavage. […] The blood samples were immediately centrifuged at 3000 rpm for 3-5 minutes to separate plasma from cells and the plasma and cells were frozen separately by immersion in liquid nitrogen and storage in a −20° C. freezer.
The aldehyde and acetal forms of CLA were then extracted from the plasma using a Bligh Dyer-type liquid phase extraction followed by solid-phase extraction using a reverse phase column. The relative amounts of CLA acetal and aldehyde were then measured using HPLC separation with mass spectrometric detection, using an electrospray ionization source and a Micromass Qtof detector.

[3] = Uptake and conversion of CLA acetal in rat gastrocnemius muscle; format: in vivo
Procedure: This experiment was designed to measure the uptake of CLA acetal in rat gastrocnemius muscle and to detect conversion of CLA acetal to CLA as it occurs in rat muscle. […] At different times following administration of drug, each rat was sacrificed, the left and right gastrocnemius muscles were dissected from the rat, and the muscles were frozen by immersion in liquid nitrogen and storage in a −80° C. freezer.
The muscle tissues were thawed and homogenized using a blender.

[4] = Conversion of CLA acetal to aldehyde using acid (HPLC); format: physicochemical; conditions: 5 mg/mL in water
Procedure: Solutions of CLA diethyl acetal in water were prepared at a concentration of 5 mg/mL and the pH was adjusted to values shown in Table 8 using concentrated hydrochloric acid. Each solution was incubated at different times at room temperature. Samples were removed at each time point and quenched using basic phosphate buffer, yielding a final pH of 9. The quenched samples were analyzed using an Agilent 1100 HPLC system. The aldehyde was chromatographically separated from the acetal on a C18 reverse-phase HPLC column, using a linear gradient where the starting mobile phase was 0.1% trifluoroacetic acid in a 99:1 water:acetonitrile mixture and the final mobile phase was 0.1% trifluoroacetic acid in a 50:50 water:acetonitrile mixture. The absorbance at 220 nm was monitored, and the area of the peak corresponding to elution of the CLA diethyl acetal was computed.

[5] = rats
Procedure: In a pilot toxicology study, two groups of 2 male and 2 female Sprague-dawley rats each were administered intravenous bolus doses of 250 and 500 mg/kg CLA. […] In a larger, follow-up study (Table 11), Sprague-Dawley rats were administered several lower doses of CLA intravenously at 7-8 weeks of age. The rats were divided into 4 groups consisting of equal numbers of male and female rats. […] The vehicle consisted of Dulbecco's phosphate-buffered saline.

[6] = rats, various doses
[7] = test system: rat hind limb muscle (sciatic nerve denervation); conditions: for % loss (muscle atrophy due to denervation): rat
Procedure: Denervation was carried out on one of the hind limb sciatic nerves of the rat. Denervation was allowed to proceed for 7 days. Either leupeptin or CLA was injected 2×/day in forelimb muscle for seven days. The non-denervated hind limb was used as the control. Leupeptin and/or CLA were injected into alternating forelimb muscles for a period of seven days after which, animals were sacrificed, muscles excised and weighed.

[8] = test system: calpain; conditions: RD muscle cells
From the text: This study was designed to measure the effect of CLA, a calpain inhibitor, upon calpain activity inside living muscle cells. […] Full length alpha-II spectrin has a molecular weight of approximately 250 kilodaltons; upon cleavage by calpain, calpain-specific spectrin breakdown products with molecular weights of approximately 150 and 145 kilodaltons, respectively, are generated sequentially. Human RD muscle cells are a rhabdomyosarcoma muscle cell line that expresses OCTN2, a transporter for carnitine. By monitoring the reduction in spectrin breakdown products caused by calpain inhibition in RD muscle cells, it is possible to measure the potency of inhibitors according to the extent to which they reduce the appearance of calpain-specific spectrin breakdown products.
In the experiment, Rd muscle cells were incubated with either CLA or leupeptin for 1 hour. 1 nM maitotoxin was added to the cells to stimulate calcium influx and calpain activation. The cells were incubated for another 60 minutes. The cells were then lysed in phosphate buffer containing 1% Triton X-100 and a protease inhibitor cocktail. The lysed samples were centrifuged and the supernatants were collected. The protein concentration in each supernatant was measured using a standard assay. 20 micrograms of each sample was electrophoresed on a 4% Tris-glycine polyacrylamide gel. […]

[9] = test system: mdx mice; conditions: for Myofiber diameter (Gastrocnemis) / Myofiber diameter, Diaphragm: injected parenterally daily from one to two months
Procedure: CLA was injected parenterally daily at the indicated concentrations into mdx mice from one to two months. Mdx control mice were injected with saline alone. At two months, the animals were sacrificed and indicated muscles removed, fixed, and stained for myofiber diameter analysis.

[10] = test system: calpain; conditions: rats, IP, muscle isolated after 2 hours
Procedure: An initial series of toxicology experiments was performed in rats to assess the effect of CLA at various doses, on animal viability. […] A series of experiments to examine the ability of CLA vs. leupeptin to decrease activated calpain levels and inhibit muscle wasting was conducted. In the experiment shown in Table 4, rats were utilized to assess the effect of IP injection of either leupeptin or CLA into the hind limb muscle on their ability to inhibit calpain activity. To this end, four rats were injected IP with either leupeptin or CLA. After 2 hours, the muscle was isolated, homogenized, and assayed for remaining calpain activity by the standard assay.

[11] = target: porcine kidney calpain 2 (Sus scrofa, UniProt I3LQD3); experiment: Enzymatic calpain assay with fluorogenic substrate; format: biochemical; conditions: porcine kidney calpain 2, 37° C., 10 mM calcium chloride
From the text: The α-carbon stereocenter adjacent to the aldehyde group of CLA can be prepared in a “natural” L or “unnatural” D configuration. It is known however that enolization of such aldehydes can easily occur during synthesis, storage, or administration of such peptide aldehydes to patients, with the result that the α-carbon stereocenter undergoes racemization. To investigate the relative biological activity of the optical isomers of CLA, the pure form of both the L-argininal diethyl […] diethyl acetal forms of CLA were prepared via the method described in Example 11 below using both L and D enantiomers of the […] starting materials. […] Slopes were calculated for the initial phase of each reaction and the ratios of velocities for each compound concentration (Vi) to the uninihibited reaction velocity (V0) were calculated, plotted, and fitted to a rectangular hyperbola using the program Kaleidagraph (Synergy software). […] An increase in enzyme activity appears to occur at intermediate concentrations of the D-isomer (Panel B.). This increase may be due to weak binding at an allosteric site that is not inhibitory the enzyme.

[12] = 45 minutes after single oral gavage of 50 mg/kg CLA acetal acetate salt, single rat
[13] = rat left gastrocnemius, 2 hours after oral 50 mg/kg CLA acetal acetate salt
[14] = rat right gastrocnemius, 6 hours after oral 50 mg/kg CLA acetal acetate salt
[15] = rat right gastrocnemius, 8 hours after oral 50 mg/kg CLA acetal acetate salt, one line per rat, 50 mg/kg

porcine kidney calpain 2, sequence (P04574 whole entry): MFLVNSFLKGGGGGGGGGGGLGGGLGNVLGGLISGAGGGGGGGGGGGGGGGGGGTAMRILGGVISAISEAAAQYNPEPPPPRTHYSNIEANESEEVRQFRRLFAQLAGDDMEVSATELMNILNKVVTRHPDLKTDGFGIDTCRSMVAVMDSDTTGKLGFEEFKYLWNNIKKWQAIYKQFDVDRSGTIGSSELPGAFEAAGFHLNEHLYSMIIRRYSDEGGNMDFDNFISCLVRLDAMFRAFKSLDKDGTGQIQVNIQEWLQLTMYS
porcine kidney calpain 2, sequence (I3LQD3 entry or part of it): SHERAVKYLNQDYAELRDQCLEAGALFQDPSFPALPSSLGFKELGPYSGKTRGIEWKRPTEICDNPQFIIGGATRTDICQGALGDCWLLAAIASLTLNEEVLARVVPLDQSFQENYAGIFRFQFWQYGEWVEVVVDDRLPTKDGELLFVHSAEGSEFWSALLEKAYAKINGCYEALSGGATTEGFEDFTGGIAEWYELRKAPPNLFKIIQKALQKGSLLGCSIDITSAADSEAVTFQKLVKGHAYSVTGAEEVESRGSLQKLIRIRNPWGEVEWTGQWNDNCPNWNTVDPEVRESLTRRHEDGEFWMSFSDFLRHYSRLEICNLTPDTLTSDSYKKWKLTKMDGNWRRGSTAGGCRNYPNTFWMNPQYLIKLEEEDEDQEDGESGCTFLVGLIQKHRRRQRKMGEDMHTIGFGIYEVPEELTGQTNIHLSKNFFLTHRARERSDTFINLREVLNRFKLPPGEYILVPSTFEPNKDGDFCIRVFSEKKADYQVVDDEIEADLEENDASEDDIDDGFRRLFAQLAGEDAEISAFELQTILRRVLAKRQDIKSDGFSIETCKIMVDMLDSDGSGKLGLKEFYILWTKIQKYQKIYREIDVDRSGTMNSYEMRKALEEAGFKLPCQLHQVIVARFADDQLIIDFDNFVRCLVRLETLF

In the case of `CC(=O)O.CCOC(OCC)[C@H](CCCNC(=N)N)NC(=O)[C@H](CC(C)C)NC(=O)CCC(=O)N[C@H](CC(=O)[O-])C[N+](C)(C)C` [CLA acetal, aminocarnityl-succinyl-leucyl-argininal diethyl acetal], the “toxicity after single oral dose” value [1] is reported as “No evidence of toxicity”, the “Estimated Plasma Concentration of CLA acetal” value [2, 12] is reported as 5,840 ng/mL and the “Estimated Plasma Concentration of CLA acetal” value ([2]; 60 minutes after single oral gavage of 50 mg/kg CLA acetal acetate salt, one line per rat, 50 mg/kg) is reported as 970 ng/mL and 8240 ng/mL and 51200 ng/mL. For the same compound, the oral absorption ([2]; rats, 50 mg/kg oral gavage) was “absorbed intact”, the “Muscle concentration of prodrug” value [3, 13] was 37.4 ng per gram and the “Muscle concentration of prodrug” value [3, 14] was 9.7 ng per gram. For the same compound, the “Muscle concentration of prodrug” value [3, 15] was 10.3 ng per gram and 9.2 ng per gram, the Percent acetal remaining ([4]; pH = 0, room temperature, activation time 0 min) was 100.0% and the Percent acetal remaining ([4]; pH = 0, room temperature, activation time 5 min) was 80.0%. It also gave a Percent acetal remaining ([4]; pH = 0, room temperature, activation time 15 min) of 28.5%, a Percent acetal remaining ([4]; pH = 0, room temperature, activation time 30 min) of 11.2% and a Percent acetal remaining ([4]; pH = 0, room temperature, activation time 45 min) of 11.3%. It also gave a Percent acetal remaining ([4]; pH = 0, room temperature, activation time 60 min) of 11.3%, a Percent acetal remaining ([4]; pH = 0, room temperature, activation time 90 min) of 9.0% and a Percent acetal remaining ([4]; pH = 0, room temperature, activation time 120 min) of 10.9%. The Percent acetal remaining ([4]; pH = 0, room temperature, activation time 240 min) was 9.3%, the Percent acetal remaining ([4]; pH = 0, room temperature, activation time 1440 min) was 9.1% and the Percent acetal remaining ([4]; pH = 1.0, room temperature, activation time 0 min) was 100.0%. For the same compound, the Percent acetal remaining ([4]; pH = 1.0, room temperature, activation time 5 min) was 100.6%, the Percent acetal remaining ([4]; pH = 1.0, room temperature, activation time 15 min) was 97.3% and the Percent acetal remaining ([4]; pH = 1.0, room temperature, activation time 30 min) was 92.2%. The Percent acetal remaining ([4]; pH = 1.0, room temperature, activation time 45 min) was 86.9%, the Percent acetal remaining ([4]; pH = 1.0, room temperature, activation time 60 min) was 81.7% and the Percent acetal remaining ([4]; pH = 1.0, room temperature, activation time 90 min) was 72.7%. The Percent acetal remaining ([4]; pH = 1.0, room temperature, activation time 120 min) was 64.8%, the Percent acetal remaining ([4]; pH = 1.0, room temperature, activation time 240 min) was 42.2% and the Percent acetal remaining ([4]; pH = 1.0, room temperature, activation time 1440 min) was 6.4%.

In the case of `CC(C)C[C@H](NC(=O)CCC(=O)N[C@H](CC(=O)O)C[N+](C)(C)C)C(=O)N[C@H](C=O)CCCNC(=N)N.Cl.[Cl-]` [CLA, aminocarnityl-succinyl-leucyl-argininal], the lethality ([5]; intravenous bolus, 500 mg/kg) is reported as “lethal”, the maximum tolerated dose ([5]; single intravenous dose) is reported as 200 mg/kg and the “no adverse effect limit (NOAEL)” value ([5]; single intravenous dose) is reported as 100 mg/kg. For the same compound, the toxicity ([5]; single intravenous dose, 50 and 100 mg/kg) was “No toxicity”, the “toxic effect on animal viability” value [6] was “No toxic effect” and the “% loss (muscle atrophy due to denervation)” value (“% loss” for short) ([7]; 1.0 mg/kg injected 2x/day for seven days) was 5.2 ± 1%. For the same compound, the “% loss” value ([7]; 3.0 mg/kg injected 2x/day for seven days) was under 1.0%, the “% loss” value ([7]; 6.0 mg/kg injected 2x/day for seven days) was under 1.0% and the “health / toxic effect in denervation study” value ([7]; rats, seven days of injections) was “remained healthy without any apparent negative toxic effect”. For the same compound, the “fold lower IC50 than leupeptin” value [8] was “approximately 200 fold”, the “Estimated Plasma Concentration of CLA aldehyde” value [2, 12] was under 20 ng/mL and the “Estimated Plasma Concentration of CLA aldehyde” value ([2]; 60 minutes after single oral gavage of 50 mg/kg CLA acetal acetate salt, one line per rat, listed as CLA aldehyde, 50 mg/kg) was <20 ng/mL (2×) and 72 ng/mL. The “Myofiber diameter (Gastrocnemis)” value ([9]; 5 mg) was 28.7 ± 7 mm, the “Myofiber diameter, Diaphragm” value ([9]; 5 mg) was 25.1 ± 7.3 mm and the “Myofiber diameter (Gastrocnemis)” value ([9]; 10 mg) was 30.6 ± 11 mm. The “Myofiber diameter, Diaphragm” value ([9]; 10 mg) was 25.4 ± 7.3 mm, the “effectiveness relative to leupeptin alone” value ([9]; retention of muscle size) was “at least five to seven times more effective” and the “Muscle concentration of active drug” value [3, 13] was 124.6 ng per gram. For the same compound, the “Percent of drug present as the active form” value (shortened to “Percent of drug present”) [3, 13] was 76.9%, the “Muscle concentration of active drug” value [3, 14] was 683.6 ng per gram and the “Percent of drug present” value [3, 14] was 98.6%. For the same compound, the “Muscle concentration of active drug” value [3, 15] was 758.4 ng per gram and 330.8 ng per gram, the “Percent of drug present” value [3, 15] was 98.7% and 97.3% and the “% inhibition of muscle calpain activity” value ([10]; 14 μmoles) was 48%. The “% inhibition/μmole” value [10] was 3.5% and the “Fold (effectiveness per μmole relative to leupeptin)” value [10] was 13.5.

`CC(C)CC(NC(=O)CCC(=O)NC(CC(=O)[O-])C[N+](C)(C)C)C(=O)NC(C=O)CCCNC(=N)N` [D-isomer] showed an IC50 ([11]; FIG. 7 Panel B) of over 100000 nM.

Work on `CC(C)CC(NC(=O)CCC(=O)NC(CC(=O)[O-])C[N+](C)(C)C)C(=O)NC(C=O)CCCNC(=N)N` [L-isomer of CLA] yielded an IC50 ([11]; FIG. 7 Panel A) of 500 to 1000 nM.
